Test results taken from US20230212144A1, “5-MEMBERED HETEROARYL DERIVATIVE CONTAINING AT LEAST ONE N, AND PHARMACEUTICAL COMPOSITION FOR PREVENTING OR TREATING MENTAL DISORDERS, CONTAINING SAME AS ACTIVE INGREDIENT” (DAEGU-GYEONGBUK MEDICAL INNOVATION FOUNDATION, priority 2020, published 2023).
pIC50: −log10 of the molar value.

How the values were obtained:
[1] = target: serotonin transporter (SERT) (Homo sapiens, UniProt P31645); assay: Serotonin reuptake inhibition, [3H]-5-HT, cells transfected with 5-HT transporter cDNA; conditions: for Triple reuptake inhibition (Ratio %) SERT: compound 1 μM, relative to control without compound (100%), lower value = stronger inhibition
[2] = target: norepinephrine transporter (NET) (Homo sapiens, UniProt P23975); assay: Norepinephrine reuptake inhibition, [3H]-NE, cells transfected with NE transporter cDNA; conditions: for Triple reuptake inhibition (Ratio %) NET: compound 1 μM, relative to control without compound (100%), lower value = stronger inhibition
Protocol: (§1) After removing the medium, each compound of Examples or Comparative Examples diluted to 1 μM in uptake buffer was added to a concentration of 200 μL/well and cultured at 37° C. for 15 minutes. 100 μL of uptake buffer containing 20-30 nM [3H]-DA was added and cultured at 37° C. for 5 minutes. The reaction solution was quickly removed and washed three times with 1 mL ice-cold uptake buffer. After dissolving the resultant in 1% SDS (0.5 mL), the degree of binding of radioisotope-labeled dopamine to the transporter was measured.
For norepinephrine(NE) and serotonin(5-HT), the degree of binding of radioisotope-labeled norepinephrine or serotonin to the transporter was measured in the same manner as above, except that cells transfected with NE or 5-HT transporter cDNA were used and [3H]-NE or [3H]-5-HT was used as a substrate.
(§2) In addition, when evaluating the reuptake inhibitory effect on dopamine, norepinephrine, and serotonin, the same method was performed without treating each compound of Examples or Comparative Examples as a control, the degree of binding of radioisotope-labeled dopamine, norepinephrine, and serotonin to the transporter was measured, and by using this as a reference (100%), the triple reuptake inhibitory effect was evaluated as a relative ratio (Ratio %). That is, in the control group, the binding of dopamine, norepinephrine, and serotonin to transporters is not inhibited, but when each compound of Examples is treated and thus the binding is inhibited, the Ratio % value decreases.

[3] = target: dopamine transporter (DAT) (Homo sapiens, UniProt Q01959); assay: Dopamine reuptake inhibition, [3H]-DA, HEK-293 cells transfected with dopamine transporter cDNA; conditions: for Triple reuptake inhibition (Ratio %) DAT: compound 1 μM, relative to control without compound (100%), lower value = stronger inhibition
Chain of dopamine transporter (DAT) (Q01959 whole entry, species assumed): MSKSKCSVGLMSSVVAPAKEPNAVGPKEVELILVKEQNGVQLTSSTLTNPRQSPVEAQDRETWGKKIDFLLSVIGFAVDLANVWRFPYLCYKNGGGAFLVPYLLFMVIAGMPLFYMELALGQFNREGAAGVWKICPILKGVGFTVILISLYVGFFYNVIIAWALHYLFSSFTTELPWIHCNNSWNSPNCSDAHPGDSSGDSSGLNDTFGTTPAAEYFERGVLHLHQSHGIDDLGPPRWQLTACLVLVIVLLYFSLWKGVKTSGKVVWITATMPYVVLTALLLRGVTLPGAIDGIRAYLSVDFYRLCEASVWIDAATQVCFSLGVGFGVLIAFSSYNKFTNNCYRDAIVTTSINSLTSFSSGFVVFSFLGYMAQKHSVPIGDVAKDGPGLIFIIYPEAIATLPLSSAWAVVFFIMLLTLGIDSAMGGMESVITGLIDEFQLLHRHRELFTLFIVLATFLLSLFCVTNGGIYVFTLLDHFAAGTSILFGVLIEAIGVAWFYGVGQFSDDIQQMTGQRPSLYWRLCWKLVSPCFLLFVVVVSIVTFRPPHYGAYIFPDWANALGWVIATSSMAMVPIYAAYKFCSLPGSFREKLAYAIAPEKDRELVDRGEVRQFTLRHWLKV
Protocol: as §1, §2

Chain of serotonin transporter (SERT) (P31645 whole entry, species assumed): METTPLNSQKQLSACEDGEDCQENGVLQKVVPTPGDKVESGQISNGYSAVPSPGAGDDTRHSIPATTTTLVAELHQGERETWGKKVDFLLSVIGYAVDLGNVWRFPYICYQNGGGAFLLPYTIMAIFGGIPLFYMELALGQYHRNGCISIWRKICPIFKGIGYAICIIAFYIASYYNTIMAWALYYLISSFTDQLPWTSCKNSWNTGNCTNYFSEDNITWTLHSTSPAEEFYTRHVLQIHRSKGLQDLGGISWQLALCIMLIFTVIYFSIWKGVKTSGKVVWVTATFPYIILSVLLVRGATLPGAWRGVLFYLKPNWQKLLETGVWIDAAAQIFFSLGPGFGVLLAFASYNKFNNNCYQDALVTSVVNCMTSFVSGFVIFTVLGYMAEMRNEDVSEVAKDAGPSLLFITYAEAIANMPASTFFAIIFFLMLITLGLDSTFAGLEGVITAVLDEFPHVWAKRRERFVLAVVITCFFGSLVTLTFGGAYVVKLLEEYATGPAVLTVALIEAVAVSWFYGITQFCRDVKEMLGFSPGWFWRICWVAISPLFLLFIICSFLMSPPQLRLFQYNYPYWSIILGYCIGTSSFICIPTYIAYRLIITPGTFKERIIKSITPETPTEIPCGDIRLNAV
Chain of norepinephrine transporter (NET) (P23975 whole entry, species assumed): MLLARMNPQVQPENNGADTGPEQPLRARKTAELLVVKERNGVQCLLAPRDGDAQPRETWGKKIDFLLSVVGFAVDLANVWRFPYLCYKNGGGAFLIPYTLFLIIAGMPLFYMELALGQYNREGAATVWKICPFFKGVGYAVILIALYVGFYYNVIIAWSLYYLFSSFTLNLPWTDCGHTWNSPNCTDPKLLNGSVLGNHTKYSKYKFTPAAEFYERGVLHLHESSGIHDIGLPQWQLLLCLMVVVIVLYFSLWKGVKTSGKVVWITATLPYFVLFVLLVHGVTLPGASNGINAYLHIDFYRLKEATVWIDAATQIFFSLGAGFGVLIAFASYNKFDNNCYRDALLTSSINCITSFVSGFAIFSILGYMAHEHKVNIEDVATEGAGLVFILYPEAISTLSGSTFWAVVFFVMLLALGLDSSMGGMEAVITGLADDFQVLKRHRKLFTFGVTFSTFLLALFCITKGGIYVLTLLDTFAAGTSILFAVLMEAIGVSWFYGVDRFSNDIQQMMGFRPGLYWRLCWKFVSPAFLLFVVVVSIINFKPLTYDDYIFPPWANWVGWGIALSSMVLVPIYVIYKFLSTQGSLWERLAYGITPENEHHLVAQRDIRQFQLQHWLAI

Structure (SMILES)	pIC50 [1]	Triple reuptake inhibition (Ratio %) SERT [1]	pIC50 [2]	Triple reuptake inhibition (Ratio %) NET [2]	pIC50 [3]	Triple reuptake inhibition (Ratio %) DAT [3]
FC(F)(F)Oc1cccc(-c2nnc(CN3CCC(Cc4ccccc4)CC3)[nH]2)c1 [Example 54, 4-benzyl-1-((5-(3-(trifluoromethoxy)phenyl)-4H-1,2,4-triazol-3-yl)methyl)piperidine]	–	88.15%	–	52.40%	–	38.97%
Fc1ccc2[nH]c(-c3nnc(CN4CCC(Cc5ccc(Cl)c(Cl)c5)CC4)[nH]3)cc2c1 [Example 29, 2-(5-((4-(3,4-dichlorobenzyl)piperidin-1-yl)methyl)-4H-1,2,4-triazol-3-yl)-5-fluoro-1H-indole]	–	72.63%	–	45.28%	–	36.13%
c1ccc(CC2CCN(Cc3nnc(-c4ccc5c(c4)OCO5)[nH]3)CC2)cc1 [Example 27, 1-((5-(benzo[d][1,3]dioxol-5-yl)-4H-1,2,4-triazol-3-yl)methyl)-4-benzylpiperidine]	6.01	59.52%	5.70	53.55%	7.21	9.71%
COc1cccc2c(-c3nnc(CN4CCC(Cc5ccc(Cl)c(Cl)c5)CC4)[nH]3)c[nH]c12 [Example 45, 3-(5-((4-(3,4-dichlorobenzyl)piperidin-1-yl)methyl)-4H-1,2,4-triazol-3-yl)-7-methoxy-1H-indole]	–	21.98%	–	112.38%	–	72.49%
c1ccc(CC2CCN(Cc3nnc(-c4ccccc4)[nH]3)CC2)cc1 [Example 9, 4-benzyl-1-((5-phenyl-4H-1,2,4-triazol-3-yl)methyl)piperidine]	–	95.15%	–	73.45%	–	32.29%
c1ccc(CN2CCN(Cc3nnc(-c4cc5ccccc5[nH]4)[nH]3)CC2)cc1 [Example 4, 2-(5-((4-benzylpiperazin-1-yl)methyl)-4H-1,2,4-triazol-3-yl)-1H-indole]	–	90.26%	–	64.76%	–	22.39%
Clc1cccc2c(-c3nnc(CN4CCC(Cc5ccccc5)CC4)[nH]3)c[nH]c12 [Example 40, 3-(5-((4-benzylpiperidin-1-yl)methyl)-4H-1,2,4-triazol-3-yl)-7-chloro-1H-indole]	6.19	53.66%	6.03	92.42%	6.17	50.15%
c1ccc(C2CCN(Cc3nnc(-c4cc5ccccc5[nH]4)[nH]3)CC2)cc1 [Example 3, 2-(5-((4-phenylpiperidin-1-yl)methyl)-4H-1,2,4-triazol-3-yl)-1H-indole]	–	95.94%	–	124.39%	–	81.14%

More lines, now with the values ahead:

pIC50 [1]	Triple reuptake inhibition (Ratio %) SERT [1]	pIC50 [2]	Triple reuptake inhibition (Ratio %) NET [2]	pIC50 [3]	Triple reuptake inhibition (Ratio %) DAT [3]	Structure (SMILES)
6.24	56.55%	6.33	37.21%	6.68	20.95%	NC(=O)c1ccc2[nH]c(-c3nnc(CN4CCC(Cc5ccccc5)CC4)[nH]3)cc2c1 [Example 57, 2-(5-((4-benzylpiperidin-1-yl)methyl)-4H-1,2,4-triazol-3-yl)-1H-indol-5-carboxamide]
5.44	80.93%	6.30	36.38%	7.32	12.06%	Fc1ccc2cc(-c3nnc(CN4CCC(Cc5ccccc5)CC4)[nH]3)[nH]c2c1 [Example 16, 2-(5-((4-benzylpiperidin-1-yl)methyl)-4H-1,2,4-triazol-3-yl)-6-fluoro-1H-indole]
5.74	61.10%	6.49	27.25%	6.66	26.54%	COC(=O)c1ccc(-c2nnc(CN3CCC(Cc4ccccc4)CC3)[nH]2)cc1N [Example 63, methyl 2-amino-4-(5-((4-benzylpiperidin-1-yl)methyl)-4H-1,2,4-triazol-3-yl)benzoate]
–	88.78%	–	53.01%	–	26.92%	c1ccc(CC2CCN(Cc3nnc(-c4cc5ccccc5s4)[nH]3)CC2)cc1 [Example 26, 1-((5-(benzo[b]thiophen-2-yl)-4H-1,2,4-triazol-3-yl)methyl)-4-benzylpiperidine]
–	73.17%	–	76.00%	–	26.92%	c1ccc(CC2CCN(Cc3nnc(-c4cc5ccccc5o4)[nH]3)CC2)cc1 [Example 25, 1-((5-(benzofuran-2-yl)-4H-1,2,4-triazol-3-yl)methyl)-4-benzylpiperidine]
6.52	15.26%	6.19	39.66%	5.92	45.52%	COc1ccc2c(-c3nnc(CN4CCC(Cc5ccccc5)CC4)[nH]3)c[nH]c2c1 [Example 56, 3-(5-((4-benzylpiperidin-1-yl)methyl)-4H-1,2,4-triazol-3-yl)-6-methoxy-1H-indole]
5.78	74.39%	6.76	5.84%	7.80	7.44%	Clc1ccc2[nH]c(-c3nnc(CN4CCC(Cc5ccccc5)CC4)[nH]3)cc2c1 [Example 14, 2-(5-((4-benzylpiperidin-1-yl)methyl)-4H-1,2,4-triazol-3-yl)-5-chloro-1H-indole]
5.94	63.05%	7.44	3.38%	6.76	5.96%	COc1cc2cc(-c3nnc(CN4CCC(Cc5ccccc5)CC4)[nH]3)[nH]c2cc1OC [Example 12, 2-(5-((4-benzylpiperidin-1-yl)methyl)-4H-1,2,4-triazol-3-yl)-5,6-dimethoxy-1H-indole]
–	79.48%	–	103.43%	–	73.88%	Clc1ccc(CC2CCN(Cc3nnc(-c4cc5ccccc5[nH]4)[nH]3)CC2)cc1 [Example 7, 2-(5-((4-(4-chlorobenzyl)piperidin-1-yl)methyl)-4H-1,2,4-triazol-3-yl)-1H-indole]
–	57.01%	–	86.61%	–	62.96%	Clc1ccc2[nH]cc(-c3nnc(CN4CCC(Cc5ccccc5)CC4)[nH]3)c2c1 [Example 41, 3-(5-((4-benzylpiperidin-1-yl)methyl)-4H-1,2,4-triazol-3-yl)-5-chloro-1H-indole]
6.02	50.31%	6.65	11.66%	7.08	9.25%	N#Cc1ccc2[nH]c(-c3nnc(CN4CCC(Cc5ccccc5)CC4)[nH]3)cc2c1 [Example 17, 2-(5-((4-benzylpiperidin-1-yl)methyl)-4H-1,2,4-triazol-3-yl)-1H-indol-5-carbonitrile]
6.19	50.14%	6.13	38.22%	7.10	5.14%	COC(=O)c1ccc2[nH]c(-c3nnc(CN4CCC(Cc5ccccc5)CC4)[nH]3)cc2c1 [Example 20, methyl 2-(5-((4-benzylpiperidin-1-yl)methyl)-4H-1,2,4-triazol-3-yl)-1H-indol-5-carboxylate]
4.97	51.93%	5.93	68.26%	6.43	20.47%	Fc1ccc(-c2nnc(CN3CCC(Cc4ccccc4)CC3)[nH]2)cc1 [Example 47, 4-benzyl-1-((5-(4-fluorophenyl)-4H-1,2,4-triazol-3-yl)methyl)piperidine]
